The term IC50 denotes the point on the concentration scale where inhibition reaches its midpoint. Low readings indicate greater potency, high ones weaker potency.

In the test the target is Ceramide glucosyltransferase (Canis familiaris). Briefly: Inhibitory concentration against glucosylceramide synthase in MDCK cell line.

Compound `CCCCCCCCCCCCCCCC(=O)NC(CN1CCCC1)C(O)c1ccc(O)cc1` (configuration not stated) [Hexadecanoic acid [2-hydroxy-2-(4-hydroxy-phenyl)-1-pyrrolidin-1-ylmethyl-ethyl]-amide] showed an IC50 of 0.09 µM.

Take `CCCCCCCCCCCCCCCC(=O)NC(CN1CCCC1)C(O)c1ccc2c(c1)OCCO2` (configuration not stated) [Hexadecanoic acid [2-(2,3-dihydro-benzo[1,4]dioxin-6-yl)-2-hydroxy-1-pyrrolidin-1-ylmethyl-ethyl]-amide]: the midpoint of inhibition, the IC50, lay at 0.09 µM.
